Reference: patent US20190011433A1, “CELL CO-CULTURE SYSTEMS AND USES THEREOF” (Dana-Farber Cancer Institute, Inc., priority 2007, published 2019)
Entries after “also recorded” stand apart in the source; their conditions may differ.

Tests used:
[1] = system: MM-1S-GFP-luc myeloma cells; experiment: CS-BLI drug sensitivity of MM-1S-GFP-luc cells in presence vs absence of stromal cells; type: cell-based, human; conditions: presence vs absence of HS-5 BMSCs (10,000 per well)
Description: Luciferin (7.5 mg/mL; Xenogen Corp, Alameda, Calif.) was added at the volume stated in each experiment. Cell viability and the precise cell counts were established by Trypan blue exclusion assay immediately before plating of the cells. Compartment-specific bioluminescence emitted by individual wells of these plates was measured with two different bioluminescence imaging modalities, namely a Xenogen IVIS® Imaging System (FIG. 1A and FIG. 1B) and a standard luminometer plate reader—Luminoskan luminometer (Labsystems, MA) (FIG. 1C). The results with each method were analyzed for the linearity of the bioluminescent signal vs. cell number using the Living Image® software (Xenogen Corp, Alameda Calif.).

[2] = system: MM-1R-GFP-luc myeloma cells; experiment: CS-BLI drug sensitivity of MM-1R-GFP-luc cells in presence vs absence of stromal cells; conditions: MM-1R-GFP-luc (Dex-resistant), presence vs absence of HS-5 BMSCs (10,000 per well)
[3] = system: KU812F-luc leukemia cells; experiment: CS-BLI drug sensitivity of KU812F-luc leukemia cells in presence vs absence of HS-5 BMSCs; type: cell-based; conditions: presence vs absence of HS-5 BMSCs (10,000 per well)
Description: In another set of experiments, Applicants tested and observed similar protective/sensitization effect of stroma cell on KU812F-luc cells on various drugs (data not shown).
(§1) Applicants expanded the application of in vitro compartment-specific bioluminescence imaging assays beyond the MM cells to other tumor models, namely a few leukemic cell lines. Applicants specifically tested luciferase-expressing K562-luc-neo and KU812F-luc-neo leukemic cells against standard anti-leukemia agents, including AraC and Doxo, in the presence vs. absence of HS-5 stromal cells (FIG. 7A and FIG. 7B).

K562-luc leukemia cells = experiment: CS-BLI drug sensitivity of K562-luc leukemia cells in presence vs absence of HS-5 BMSCs; type: cell-based; conditions: presence vs absence of HS-5 BMSCs (10,000 per well)
Description: as §1

[4] = system: MDA-MB-231met-luc-neo cells; experiment: CS-BLI drug sensitivity of MDA-MB-231met-luc-neo cells alone or with HS-5 BMSCs; type: cell-based; conditions: MDA-MB-231met-luc-neo alone or with HS-5 BMSCs (10,000/well), 48 hrs
Description: (§2) MDA-MB-231met-luc-neo (FIG. 18A, FIG. 18B), A375-luc-neo (FIG. 18C, FIG. 18D) and FRO-luc-neo (FIG. 18E, FIG. 18F) cells were plated either alone or mixed with HS-5 BMSCs (10,000 /well) and treated the following day. The cultures of tumor cells and their co-cultures with BMSCs were incubated for an additional 48 hrs.

A375-luc-neo cells = experiment: CS-BLI drug sensitivity of A375-luc-neo cells alone or with HS-5 BMSCs; type: cell-based; conditions: A375-luc-neo alone or with HS-5 BMSCs (10,000/well), 48 hrs
Description: as §2

FRO-luc-neo cells = experiment: CS-BLI drug sensitivity of FRO-luc-neo cells alone or with HS-5 BMSCs; type: cell-based; conditions: FRO-luc-neo alone or with HS-5 BMSCs (10,000/well), 48 hrs
Description: as §2

[5] = system: MM.1S-GFP-luc target cells; experiment: CS-BLI killing of MM.1S-GFP-luc target cells by IL-2 stimulated PBMCs; type: cell-based, human; conditions: for effect of concurrent drug exposure of co-culture on activity of PBMCs to kill tumor targets: 2 μM CC5013, 2 μM CC4047, 20 nM PS-341 or 100 nM Dex during co-culture; for effect of concurrent drug exposure of co-culture on activity of PBMCs to kill tumor targets / effect of drug pretreatment of PBMCs on activity of PBMCs to kill tumor targets: MM.1S-GFP-luc targets; for effect of drug pretreatment of PBMCs on activity of PBMCs to kill tumor targets: PBMCs pretreated 24 hrs with IL-2 plus 1 μM CC5013, 1 μM CC4047, 10 nM PS-341 or 50 nM Dexamethasone, washed
Description: (§3) PBMCs were isolated from a healthy donor, stimulated for 24 hrs with 10 ng/mL of IL-2 and then combined in culture with 5000 tumor target cells. The human multiple myeloma line, MM.1S-GFP-luc (FIG. 27A), was used as target cells and combined with PBMCs at 1:1, 1:5, 1:10, 1:20 and 1:40 ratios. The basophilic leukemia line, KU812F-luc-neo (FIG. 27B), was used as target cells and combined with PBMCs from the same donor at 1:1, 1:5, 1:10, 1:20 and 1:40 ratios. Viability of tumor cells was assessed using bioluminescence detection after the addition of luciferin substrate following 4 hours of co-culture with immune effector cells.
(§4) PBMCs were isolated from a healthy donor, stimulated for 24 hrs with IL-2 in the presence of either 1 μM CC5013 (FIG. 29A), 1 μM CC4047 (FIG. 29B), 10 nM PS-341 (FIG. 29C), or 50 nM Dexamethasone (FIG. 29D). PBMCs were washed and combined in culture with MM.1S-GFP-luc target cells at the 1:1, 1:2.5, 1:5, 1:10, 1:20 and 1:40 target to effector ratios.
PBMCs were isolated from a healthy donor, stimulated for 24 hrs with IL-2 in the presence or absence of 1 μM CC4047. MM.1S-GFP-luc cells were cultured in the presence or absence of 1 μM CC4047. PBMCs and MM.1S-GFP-luc cells were washed to remove drug and combined in culture with target MM.1S-GFP-luc target cells, either pretreated with 1 μM CC4047 or without, and combined at 1:1, 1:2.5, 1:5, 1:10, 1:20 and 1:40 target to effector ratios in the absence of drug.
PBMCs were isolated from a healthy donor, stimulated for 24 hrs with IL-2. PBMCs were combined in culture with MM.1S-GFP-luc target cells at the 1:1, 1:2.5, 1:5, 1:10, 1:20 and 1:40 target to effector ratios in the presence or absence of 2 μM CC5013 (FIG. 32A), 2 μM CC4047 (FIG. 32B), 20 nM PS-341 (FIG. 32C), or 100 nM Dex (FIG. 32D) during co-culture.

[6] = system: KU812F-luc-neo target cells; experiment: CS-BLI killing of KU812F-luc-neo target cells by IL-2 stimulated PBMCs; type: cell-based; conditions: for effect of concurrent drug exposure of co-culture on activity of PBMCs to kill tumor targets: 2 μM CC5013, 2 μM CC4047, 20 nM PS-341 or 100 nM Dex during co-culture; for effect of drug pretreatment of PBMCs on activity of PBMCs to kill tumor targets: PBMCs pretreated 24 hrs with IL-2 plus 1 μM CC5013, 1 μM CC4047, 10 nM PS-341 or 50 nM Dexamethasone, washed
Description: as §3
as §4, with “with” for “in the presence of”, “30A),” for “29A),”, “30B),” for “29B),”, “30C),” for “29C),”, “30D).” for “29D).”, “KU812F-luc-neo” for “MM.1S-GFP-luc”
PBMCs were isolated from a healthy donor, stimulated for 24 hrs with IL-2. PBMCs were then washed and combined in culture with KU812F-luc-neo target cells at the 1:1, 1:2.5, 1:5, 1:10, 1:20 and 1:40 target to effector ratios in the presence or absence 2 μM CC5013 (FIG. 33A), 2 μM CC4047 (FIG. 33B), 20 nM PS-341 (FIG. 33C), or 100 nM Dex (FIG. 33D).

[7] = system: Multiple myeloma (MM) cells; conditions: cited from earlier work
MM = conditions: cited from earlier work

SMILES	effect of BMSC co-culture on tumor cell response to drug (protection) [3]	effect of BMSC co-culture on tumor cell response to drug (protection) (K562-luc leukemia cells)	effect of concurrent drug exposure of co-culture on activity of PBMCs to kill tumor targets [5]	effect of drug pretreatment of PBMCs on activity of PBMCs to kill tumor targets [5]	effect of concurrent drug exposure of co-culture on activity of PBMCs to kill tumor targets [6]	effect of drug pretreatment of PBMCs on activity of PBMCs to kill tumor targets [6]	further results
CC1=C2C(=O)[C@H]3[C@@H](CC=C4C[C@@H](O)CC[C@@]43C)[C@@H]2CC[C@]12O[C@@H]1C[C@H](C)CN[C@H]1[C@H]2C [11-keto-cyclopamine]							effect of BMSC co-culture on tumor cell response to drug (protection) [1]: conferred protection; effect of BMSC co-culture on tumor cell response to drug (protection) [2]: conferred protection
Nc1ccn([C@@H]2O[C@H](CO)[C@@H](O)[C@@H]2O)c(=O)n1 [AraC]	decreased the responsiveness; also recorded: confer protection	protection was observed					effect of BMSC co-culture on tumor cell response to drug (protection) ([3]; listed as Ara-C): develop stromal-derived resistance; effect of BMSC co-culture on tumor cell response to drug (protection) [4]: modest protection; effect of BMSC co-culture on tumor cell response to drug (protection) (A375-luc-neo cells): considerable level of protection; effect of BMSC co-culture on tumor cell response to drug (protection) (FRO-luc-neo cells): no protection
Nc1cccc2c1C(=O)N(C1CCC(=O)NC1=O)C2=O (stereo not shown) [CC4047]			increased activity	did not have a significant impact; also recorded: no significant increasing in activity	significant difference increasing the activity	did have a significant impact on increasing	effect of drug pretreatment of target myeloma cells on killing by PBMCs ([5]; MM.1S-GFP-luc cells pretreated with 1 μM CC4047, washed): significant increase
Nc1cccc2c1CN(C1CCC(=O)NC1=O)C2=O (stereo not shown) [CC5013]			had an increase in the activity	did not have a significant impact	significant difference increasing the activity	did not have a significant impact	
Cc1ccc(NC(=O)c2ccc(CN3CCN(C)CC3)cc2)cc1Nc1nccc(-c2cccnc2)n1 [Imatinib, imatinib]	confer protection	do not confer protection					effect of BMSC co-culture on tumor cell response to drug (protection) ([3]; listed as imatinib): develop stromal-derived resistance; also recorded: decreased the responsiveness; effect of BMSC co-culture on tumor cell response to drug (protection) (K562-luc leukemia cells; listed as imatinib): do not exhibit such phenotype
CC(C)C[C@H](NC(=O)[C@H](Cc1ccccc1)NC(=O)c1cnccn1)B(O)O [PS-341, bortezomib]			decreased activity	did have a significant impact on blocking	significant difference blocking the activity	did have a significant impact on blocking	effect of BMSC co-culture on tumor cell response to drug (protection) ([1]; listed as bortezomib): did not abrogate the responsiveness; effect of BMSC co-culture on tumor cell response to drug (protection) [2]: confer no protection; effect of BMSC co-culture on tumor cell response to drug (protection) ([2]; listed as bortezomib): did not abrogate the responsiveness
Nc1cccc2c1CN(C1CCC(=O)NC1=O)C2=O (stereo not shown) [lenalidomide]							single-agent in vitro anti-MM activity [7]: modest; anti-MM activity in vivo (MM): potent
Cc1cn(-c2cc(NC(=O)c3ccc(C)c(Nc4nccc(-c5cccnc5)n4)c3)cc(C(F)(F)F)c2)cn1 [nilotinib]	confer protection	do not confer protection					
O=C1CCC(N2C(=O)c3ccccc3C2=O)C(=O)N1 (stereo not shown) [thalidomide]							single-agent in vitro anti-MM activity [7]: modest; anti-MM activity in vivo (MM): potent
